We go through 16 compounds from PMC11718441, “Bis-3-chloropiperidines: a novel motif for anthelmintic drug design” (RSC Advances, 2025).

Series [1] deals with Escherichia coli ATCC35218. As to the kind of experiment: microbe, parasite or virus in culture. It counts as cell-based. The note with it: ATCC35218, read-out: MIC Ec. Here is the method: (§1) The minimum inhibitory concentration (MIC) of the synthesized compounds was initially determined against three microbial indicator strains (Escherichia coli ATCC35218, […] ATCC33592, Septoria tritici MUCL45408). […]
(§2) 2. Microbial and parasitological studies
(§3) The minimum inhibitory concentration (MIC) of the synthesized compounds was determined against three microbial indicator strains (E. coli ATCC35218, S. aureus ATCC33592 and S. tritici MUCL45408) as previously described.1,2 All samples were dissolved in DMSO and tested in triplicate. Briefly, a pre-culture of E. coli and S. aureus was prepared by incubating the strains in cation adjusted Mueller Hinton 2 broth (Becton Dickinson, Sparks, NV, USA) at 37°C and 180 rpm overnight. The cell density of adjusted to 5 × 10^5 cells/mL before assays were incubated at 37 °C, 180 rpm and 85% rH. Three distinct dilution series of standard antibiotics (gentamicin, rifampicin, […]
(§4) medium without test compound or positive control was used as negative control.
(§5) Medium background was averaged from 5 replicates. The turbidity of each well was […]

The subject of series [2] is S. aureus ATCC33592. As to the kind of experiment: microbe, parasite or virus in culture. The format is cell-based. As to conditions: Staphylococcus aureus, ATCC33592, read-out: MIC Sa. Here is the method: as §1, §2, §3, §4, §5
Series [3] deals with MDCK II cells. As to the kind of experiment: In vitro cytotoxicity, CellTiter-Glo, MDCK II cells. The note with it: 100 μM, 48 h; cell viability less than 80% relative to DMSO control = cytotoxic.
Series [4] deals with C. elegans N2. As to the kind of experiment: whole plant or invertebrate. The format is cell-based, Caenorhabditis elegans. The source says: (§6) The cuticle of C. elegans strain DC19 is known to be more permeable for small molecules compared to the wildtype N2.[30] DC19 is thereby considered an informative drug-sensitive test organism. In our assays, we determined the minimum mobility inhibitory concentration (MMIC) as a proxy for anthelmintic activity. […] In contrast, MMICs of some small molecule anthelmintics such as albendazole, mebendazole or PF-1022A were lower for DC19 (Fig. S1 ^†). […]
(§7) 2.2 In vitro tests against Caenorhabditis Elegans
(§8) The minimal motility inhibitory concentration (MMIC) of compounds 1-22 against C. elegans was determined as described before.3 Both strains, C. elegans N2 and DC19 were treated identically. Briefly, pre-cultures of C.elegans were kept on NGM agar plates infused with auxotrophic E.coli OP50 as food source.4 After 4 days the plates contained sufficient gravid worms, respectively. Worms were washed from the plates with M9 buffer using wide bore pipette tips. Egg preparation was carried out by treating the harvested worms with an alkaline hypochlorite solution (5 M NaOH + 5 % NaOCl 1:2) in polypropylene tubes. Larvae and adult […]
(§9) We carried out 3 washing steps (M9 buffer) to remove carry-over hypochlorite solution. Subsequently, the eggs were incubated overnight in NGM broth on a rotator to yield synchronized hatched L1/L2 larvae. The larvae solution was adjusted to 100 worms/mL and supplemented with cholesterol (5 µg/mL), carbenicillin (25 µg/mL) and E.coli OP50 (0.5%). This assay solution was distributed into 96 well plates and incubated with a dilution series of compounds 1-22 (64-0.5 µg/mL). An additional eight-point dilution series of ivermecin (40 – 0.3 ng/mL) was used as positive control on each assay plate. Solvent background was controlled by supplementation of pure DMSO without any compound. Assays were incubated for 2 days at room temperature. Finally, a cell imaging multimode reader (Cytation™ 5) was used to record short videos (1.5 seconds) of each individual test well. The videos were used to evaluate the worm motility.

Series [5] concerns C. elegans DC19. As to the kind of experiment: whole plant or invertebrate. It counts as cell-based, Caenorhabditis elegans.
Excerpt: as §6, §7, §8, §9

For series [6], the system named is Septoria tritici MUCL45408. The experiment in a line: Minimum inhibitory concentration (MIC), S. tritici (ATP quantification). It counts as cell-based. As to conditions: for MIC: Zymoseptoria tritici, read-out: MIC St. Here is the method:
as §1, §2
The minimum inhibitory concentration (MIC) of the synthesized compounds was determined against three microbial indicator strains (E. coli ATCC35218, S. aureus ATCC33592 and S. tritici MUCL45408) as previously described.1,2 All samples were dissolved in DMSO and tested in triplicate. Briefly, a pre-culture of E. coli and S. aureus was prepared by incubating the strains in cation adjusted Mueller Hinton 2 broth (Becton Dickinson, Sparks, NV, USA) at 37°C and 180 rpm overnight. The cell density of adjusted to 5 × 10^5 cells/mL before assays were incubated at 37 °C, 180 rpm and 85% rH. Three distinct dilution series of standard antibiotics (gentamicin, rifampicin, and tetracycline) were used as positive controls on each assay plate. Inoculated medium without test compound or positive control was used as negative control.
Medium background was averaged from 5 replicates. The turbidity of each well was measured with a microplate spectrophotometer at 600 nm (LUMIstar® Omega, BMG Labtech) and growth inhibition was calculated relative to the absorption of the controls. For S. tritici MUCL45408 inoculated at a density of 1 × 10^5 cells/mL in potato […]
dextrose medium. Septoria assay plates were incubated for 4 days at 25 °C, 180 rpm and 85% rH. Tebuconazole, amphotericin B, and nystatin were used as positive controls. Cell viability was evaluated via ATP quantification (BacTiter-Glo™, Promega GmbH, Walldorf, Germany) according to the manufacturer’s instructions. […]

Where [7] appears, read: Figure S1, common small molecule anthelminthics.

In brackets after ≈: the same amount, converted by molar mass. Read-outs that look alike come from different tables or passages of the source.

With `CNC(C)C1CCC(N)C(OC2C(N)CC(N)C(OC3OCC(C)(O)C(NC)C3O)C2O)O1` (stereo not drawn) [GEN, gentamicin, reference compound], the MIC in series [1] is 1 µg/mL (≈ 2.09 µM); in series [2] it was 0.5 µg/mL (≈ 1.05 µM).

As for `C[C@H](CCC(=O)O)C[C@H](C)C[C@H](C)C(=O)/C=C(\O)[C@H](C)C[C@H](C)C/C=C/[C@@H](C)[C@@H](O)[C@@H](C)[C@@H](O)C[C@@H]1CC[C@@](C)([C@H]2CC[C@@](C)([C@@H](C)O)O2)O1` [ION, ionomycin, reference compound], the MDCKII cytotoxicity entry in series [3] is “+ (“+” (toxic))”.

In the case of `CCCSc1ccc2nc(NC(=O)OC)[nH]c2c1` [Albendazole, reference compound], in series [4], the “C. elegans MMIC N2” value is given as 0.16 µg/mL. The “C. elegans MMIC DC19” value in series [5] is reported as less than 0.08 µg/mL.

Regarding `C[C@@H]1[C@H](O)[C@@H](C)/C=C/C=C/CC/C=C/C=C/C=C/C=C/C(O[C@H]2O[C@H](C)[C@@H](O)[C@H](N)[C@@H]2O)CC2O[C@](O)(CC(O)C(O)CCC(O)CC(O)CC(O)CC(=O)O[C@H]1C)CC(O)C2C(=O)O` (stereo partly drawn) [NYS, nystatin, reference compound], the “MIC St” value in series [6] (S. tritici MUCL45408, 4 days) came out at 0.25 µg/mL (≈ 0.27 µM).

As to `CC(=O)Oc1ccccc1C(=O)Nc1ncc([N+](=O)[O-])s1` [Nitazoxanide, reference compound], in series [4] (setting [7]), the “C. elegans MMIC N2” value was more than 10 µg/mL. For the same compound, the “C. elegans MMIC DC19” value in series [5] (setting [7]) is more than 10 µg/mL.

Consider `CC1(C)CC(Cl)CN(Cc2cccc(CN3CC(Cl)CC(C)(C)C3)n2)C1` (stereo not drawn) [Compound 6], for which the MIC is more than 64 µg/mL in series [6] (MUCL45408, 96 h); more than 64 µg/mL in series [1]; 64 µg/mL (≈ 161 µM) in series [2]. In series [3], the MDCKII cytotoxicity result is “+ (“+” (toxic))”. In series [4] (Caenorhabditis elegans, 48 h, read-out: MMIC N2), the minimal effective concentration worked out at 64 µg/mL.

Take `CO[C@H]1/C=C/O[C@@]2(C)Oc3c(C)c(O)c4c(O)c(c(/C=N/N5CCN(C)CC5)c(O)c4c3C2=O)NC(=O)/C(C)=C\C=C\[C@H](C)[C@H](O)[C@@H](C)[C@@H](O)[C@@H](C)[C@H](OC(C)=O)[C@@H]1C` [RIF, rifampicin, reference compound]: the MIC in series [1] was 4 µg/mL (≈ 4.86 µM); in series [2], more than 64 µg/mL.

For the compound `COC(=O)Nc1nc2ccc(C(=O)c3ccccc3)cc2[nH]1` [Mebendazole, reference compound], in series [4] (setting [7]), the “C. elegans MMIC N2” value is 1.25 µg/mL. Moreover, the “C. elegans MMIC DC19” value in series [5] (setting [7]) was 0.3 µg/mL.

Regarding Abamectin [reference compound], the “C. elegans MMIC N2” value in series [4] (setting [7]) is given as less than 0.08 µg/mL. In addition, in series [5] (setting [7]), the “C. elegans MMIC DC19” value was less than 0.08 µg/mL.

For `C[C@@H]1[C@H](O)[C@@H](C)/C=C/C=C/C=C/C=C/C=C/C=C/C=C/[C@H](O[C@@H]2O[C@H](C)[C@@H](O)[C@H](N)[C@@H]2O)C[C@@H]2O[C@](O)(C[C@@H](O)C[C@@H](O)[C@H](O)CC[C@@H](O)C[C@@H](O)CC(=O)O[C@H]1C)C[C@H](O)[C@H]2C(=O)O` [AMP, amphotericin B, reference compound], the MIC in series [6] (MUCL45408, 96 h) came to 0.125 µg/mL (≈ 0.135 µM).

For the compound `CC(C)C[C@H]1C(=O)O[C@H](Cc2ccccc2)C(=O)N(C)[C@@H](CC(C)C)C(=O)O[C@H](C)C(=O)N(C)[C@@H](CC(C)C)C(=O)O[C@H](Cc2ccccc2)C(=O)N(C)[C@@H](CC(C)C)C(=O)O[C@H](C)C(=O)N1C` [PF-1022A, reference compound], the “C. elegans MMIC N2” value in series [4] (setting [7]) is listed as 10 µg/mL. Further, the “C. elegans MMIC DC19” value in series [5] (setting [7]) was found to be 2.5 µg/mL.

As to `O=C(C1CCCCC1)N1CC(=O)N2CCc3ccccc3C2C1` (stereo not drawn) [Praziquantel, reference compound], the “C. elegans MMIC N2” value in series [4] (setting [7]) was more than 10 µg/mL. For the same compound, the “C. elegans MMIC DC19” value in series [5] (setting [7]) was more than 10 µg/mL.

Consider `CC(C)(C)C(O)(CCc1ccc(Cl)cc1)Cn1cncn1` (stereo not drawn) [TEB, tebuconazole, reference compound], for which the MIC in series [6] (96 h, S. tritici MUCL45408, 4 days) was more than 0.03 µg/mL.

Consider `CNC(=O)O/N=C/C(C)(C)SC` [Aldicarb, reference compound], for which the “C. elegans MMIC N2” value in series [4] (setting [7]) was more than 10 µg/mL. Further, the “C. elegans MMIC DC19” value in series [5] (setting [7]) is more than 10 µg/mL.

Turning to `c1ccc([C@H]2CN3CCSC3=N2)cc1` [Levamisole, reference compound], the “C. elegans MMIC N2” value in series [4] is recorded as 0.3 µg/mL. Besides, the “C. elegans MMIC DC19” value in series [5] came out at 0.3 µg/mL.

Take ivermectin [IVR, reference compound]: in series [4] (C. elegans N2, 2 days), the “MMIC N2” value is 0.005 µg/mL. Moreover, the “C. elegans MMIC N2” value in series [4] (setting [7]) worked out at 0.005 µg/mL. Besides, the “MMIC DC19” value in series [5] (C. elegans DC19, 2 days) is 0.005 µg/mL. Moreover, in series [5] (setting [7]), the “C. elegans MMIC DC19” value is 0.005 µg/mL.
